In ChEMBL document CHEMBL1201862, “PubChem BioAssay data set” (2004):
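Five compound concentrations were applied to cells in 96-well plates for 48 hours; endpoints were derived by simple linear interpolation of the resulting dose-response curve. The concentration for 50% growth inhibition is given as GI50.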 Active and inactive are the calls of the source. Rule as the data show it: active = GI50 up to about 1.1 µM and inactive = higher.

Legend:
Assay in all cases: NCI anticancer screen, dose series, 48 h
Malme-3M = tested on: Malme-3M
786-0 = tested on: 786-0
CAKI-1 = tested on: CAKI-1
SR = tested on: SR
HCT-116 = tested on: HCT-116
HOP-62 = tested on: HOP-62
A549 = tested on: A549
UO-31 = tested on: UO-31
SF-295 = tested on: SF-295
UACC-62 = tested on: UACC-62
NCI-H23 = tested on: NCI-H23
TK-10 = tested on: TK-10
SNB-78 = tested on: SNB-78
HT-29 = tested on: HT-29
DMS-114 = tested on: DMS-114
NCI-H460 = tested on: NCI-H460
OVCAR-4 = tested on: OVCAR-4
T47D = tested on: T47D
DU-145 = tested on: DU-145
BT-549 = tested on: BT-549

Measured: GI50

O=C(CCN1CCCCC1CO)Nc1ccc2c(c1)C(=O)c1ccc(NC(=O)CCN3CCCCC3CO)cc1C2=O (stereo unspecified)
inactive: Malme-3M 5.27 µM | 786-0 1.98 µM | CAKI-1 13.5 µM | SR 10.7 µM | HCT-116 7.38 µM | HOP-62 14.5 µM | A549 27.9 µM | UO-31 13.8 µM | SF-295 23.8 µM | UACC-62 8.95 µM | NCI-H23 17 µM | TK-10 8.3 µM | SNB-78 7.36 µM | HT-29 11.4 µM | DMS-114 14.1 µM | NCI-H460 6.58 µM | OVCAR-4 11.5 µM

CCC/N=C/c1c(O)c(O)c(C(C)C)c2cc(C)c(-c3c(C)cc4c(C(C)C)c(O)c(O)c(/C=N/CCC)c4c3O)c(O)c12
inactive: 786-0 10.2 µM | CAKI-1 25.8 µM | SR 3.46 µM | HCT-116 3.44 µM | HOP-62 10.2 µM | A549 8.05 µM | UO-31 6.3 µM | T47D 7.74 µM | SF-295 3.77 µM | UACC-62 5.78 µM | NCI-H23 6.1 µM | DU-145 23.8 µM | TK-10 > 100 µM | SNB-78 2.58 µM | HT-29 4.04 µM | DMS-114 1.71 µM | NCI-H460 4.38 µM | OVCAR-4 4.38 µM

O=C(NCCCCCCNC(=O)n1cc(F)c(=O)[nH]c1=O)NCCCOCCOCCOCCOCCOCCOCCOCCOCCOCCOCCOCCOCCOCCOCCOCCOCCOCCOCCOCCOCCOCCCNC(=O)C(O)C(O)C(O)C(O)CO (stereo unspecified)
inactive: Malme-3M 20.2 µM | 786-0 26.6 µM | CAKI-1 22.5 µM | SR 65.9 µM | HCT-116 9.57 µM | HOP-62 33.5 µM | A549 6.52 µM | UO-31 20.9 µM | T47D > 100 µM | SF-295 48.9 µM | UACC-62 28.8 µM | NCI-H23 32.8 µM | DU-145 25.4 µM | TK-10 15.6 µM | SNB-78 > 100 µM | HT-29 17.5 µM | DMS-114 > 100 µM | NCI-H460 5.37 µM | BT-549 37.7 µM | OVCAR-4 > 100 µM

N#CN=C(NCc1ccccc1)NCc1ccccc1
inactive: Malme-3M > 100 µM | 786-0 > 60.7 µM | CAKI-1 > 100 µM | SR 27.9 µM | HCT-116 18.4 µM | HOP-62 > 100 µM | A549 > 83 µM | UO-31 > 100 µM | SF-295 > 100 µM | UACC-62 > 100 µM | NCI-H23 > 100 µM | TK-10 > 100 µM | SNB-78 > 100 µM | HT-29 > 100 µM | DMS-114 > 38.3 µM | NCI-H460 > 64.7 µM | OVCAR-4 > 100 µM

O=C1OC(c2ccccc2)=N/C1=C\c1cccc2ccccc12
inactive: Malme-3M > 100 µM | 786-0 > 100 µM | CAKI-1 > 100 µM | SR > 100 µM | HCT-116 > 100 µM | HOP-62 > 100 µM | A549 > 100 µM | UO-31 > 100 µM | SF-295 > 100 µM | UACC-62 > 100 µM | NCI-H23 > 100 µM | TK-10 > 100 µM | SNB-78 > 100 µM | HT-29 > 100 µM | DMS-114 > 100 µM | NCI-H460 > 100 µM | OVCAR-4 > 100 µM

O=C(NCC(O)CNC(=O)C(F)(F)F)C(F)(F)F
inactive: Malme-3M > 100 µM | 786-0 > 100 µM | CAKI-1 > 100 µM | SR > 100 µM | HCT-116 > 100 µM | HOP-62 > 100 µM | A549 > 100 µM | UO-31 > 100 µM | SF-295 > 100 µM | UACC-62 > 100 µM | NCI-H23 > 100 µM | TK-10 > 100 µM | SNB-78 > 100 µM | HT-29 > 100 µM | DMS-114 > 100 µM | NCI-H460 > 100 µM | OVCAR-4 > 100 µM
